Measurements from patent US20240391900A1, “RIP1 KINASE INHIBITOR AND USE THEREOF” (SIRONAX (BEIJING) CO., LTD., priority 2021, published 2024).

The compounds below were run on HT-29 human colon cancer cells (assay: In vitro biological activity assay: inhibition of TNFα/SmacM/Z_VAD FMK-induced programmed necrosis, CellTiter-Glo viability). Conditions: HT-29 cells, necrosis induced with TNF-α 100 ng/mL, SmacM 100 nM, Z_VAD-FMK 10 μM, overnight, cell viability by chemiluminescence.
Format: cell-based
Description: In order to verify the inhibitory effect of the compounds of the present disclosure on programmed necrosis at the cellular level, a type of cells closely related to the RIP1 pathway, namely HT-29 human colon cancer cells, were selected. The used activation mode is a combination of tumor necrosis factor (TNFα), cysteine aspartate activator mimic (SmacM) and pan-caspase inhibitor Z_VAD FMK, and the cell viability was calculated by detecting chemiluminescence values, thus obtaining the biological activity of the compound inhibiting the programmed necrosis of cells.
Cell line: HT-29 (ATCC® HTB-38™)
• 2.1. The Growth Status of HT-29 Cells was Regularly Checked to Ensure their Normal Growth. • 2.2. McCOY's 5A culture medium containing 10% FBS was preheated in a 37° C. water bath for 30 minutes. When the culture medium was ready for use, the cell passage and inoculation was performed in a Class II safety cabinet with aseptic technique. • 2.3. In a T75 culture flask, when the growth density of cells reached the abundance of approximately 80%, the culture medium was aspirated and cells were washed twice with pre-warmed PBS. • 2.4. 2-3 mL of trypsin (Gibco, catalog number 25200-056) was added and the T75 culture flask was transferred to a 37° C. incubator. • 2.5. After 3-5 minutes, the side of the culture flask was tapped and examined under a microscope for detachment of the cells to the flask. If necessary, the cells were placed back into the incubator to wait for another 5-10 minutes until 85% of the cells were detached from each other. • 2.6. 6-9 mL of complete cell culture medium was quickly added to terminate the trypsin reaction, and then the cells were transferred to a sterile 15 mL centrifuge tube. The cells were pelleted by centrifugation at 300 g for 5-7 minutes in a centrifuge, and then the supernatant was decanted. • 2.7. The cells were resuspended in 10 mL of fresh cell culture medium and the cells were counted by using a hemocytometer. • 2.8. 3,000 cells contained in 100 μL were inoculated into each well of a sterile 96-well cell culture plate (Corning 3903) and cultured overnight at 37° C. under 5% CO2.
• 3.1. All batches of compounds were dissolved in dimethyl sulfoxide (DMSO) to prepare a 20 mM stock. • 3.2. 3 μL of 20 mM stock of each compound was added to 27 μL of DMSO and mixed thoroughly, and then diluted at a dilution ratio of […] (20 μL compound+40 μL DMSO) until the 10-12 points ended. After the compounds were diluted, they were set aside for use. • 3.3. The cell culture plate was taken out from the incubator, washed once with PBS, and replaced with a fresh culture medium free of serum. A mixture of TNF-α (100 ng/mL), SMAC mimic (SmacM, 100 nM) and Z_VAD-FMK (10 μM) was added to induce the programmed necrosis in HT-29 cells. • 3.4. The compound dilution plate was prepared, 0.5 μL of the diluted compound was added to the corresponding 96-well plate, and mixed gently. Two duplicate wells were prepared for each compound. • 3.5. The treated 96-well plate to which the compounds had been added was placed back into the 37° C. incubator containing 5% CO2 and incubated overnight.
The luminescence cell viability detection kit was used to calculate the activity of the compound by measuring the ATP content in viable cells. • 4.1. The CellTiter-Glo® buffer and dry powdered substrate were equilibrated to room temperature before use. • 4.2. The CellTiter-Glo® substrate was resuspended with Cell Titer-Glo® buffer, then homogeneously mixed by gently vortexing. • 4.3. The cell culture plate was taken out and equilibrated at room temperature for 10 minutes (usually not suitable if more than 30 minutes). • 4.4. 20 μL of enzyme/substrate mixture was added into the 96-well assay plate with a multi-channel pipettor. • 4.5. The 96-well assay plate was placed on a shaker and the content was mixed for 2-3 minutes to promote the cell lysis. • 4.6. […]

| Structure (SMILES) | EC50 |
| --- | --- |
| C(#Cc1cnc2cccnn12)c1cc(-n2cc3c(n2)C(c2ccccc2)CC3)ncn1 (stereo not drawn) [Compound 8, 3-((6-(6-phenyl-5,6-dihydrocyclopenta[c]pyrazol-2 (4H)-yl)pyrimidine-4-yl)ethynyl)imidazo[1,2-b]pyridazine] | 100 to 1000 nM |
| Oc1cnc(C#Cc2cncc(-n3cc4c(n3)C(c3ccccc3)CC4)c2)cn1 (stereo not drawn) [Compound 12, 5-((5-(6-phenyl-5,6-dihydrocyclopenta[c]pyrazol-2 (4H)-yl)pyridin-3-yl)ethynyl)pyrazine-2-ol] | > 1000 nM |
| Nc1ncc(C#Cc2cncc(-n3cc4c(n3)[C@@H](c3ccccc3)CC4)c2)cn1 [Compound 13, (R)-5-((5-(6-phenyl-5,6-dihydrocyclopenta[c]pyrazol-2 (4H)-yl)pyridin-3-yl)ethynyl)pyrimidin-2-amine] | ≤ 100 nM |
| Nc1ccc(C#Cc2cncc(-n3cc4c(n3)C(c3ccccc3)CC4)c2)nn1 (stereo not drawn) [Compound 17, 6-((5-(6-phenyl-5,6-dihydrocyclopenta[c]pyrazol-2 (4H)-yl)pyridin-3-yl)ethynyl)pyridazine-3-amine] | ≤ 100 nM |
| Nc1cnc(C#Cc2cncc(-n3cc4c(n3)C(c3ccccc3)CC4)c2)cn1 (stereo not drawn) [Compound 18, 5-((5-(6-phenyl-5,6-dihydrocyclopenta[c]pyrazol-2 (4H)-yl)pyridin-3-yl)ethynyl)pyrazine-2-amine] | ≤ 100 nM |
| Nc1ncc(C#Cc2cncc(-n3cc4c(n3)C(c3cncc(F)c3)CC4)c2)cn1 (stereo not drawn) [Compound 19, 5-((5-(6-(5-fluoropyridin-3-yl)-5,6-dihydrocyclopenta[c]pyrazol-2 (4H)-yl)pyridin-3-yl)ethynyl)pyrimidin-2-amine] | ≤ 100 nM |
| N#Cc1cc(F)cc(C2CCc3cn(-c4cncc(C#Cc5cnc(N)nc5)c4)nc32)c1 (stereo not drawn) [Compound 20, 3-(2-(5-((2-aminopyrimidin-5-yl)ethynyl)pyridin-3-yl)-2,4,5,6-tetrahydrocyclopenta[c]pyrazol-6-yl)-5-fluorobenzonitrile] | ≤ 100 nM |
| Cn1cc(C#Cc2cncc(-n3cc4c(n3)[C@H](c3ccccc3)CC4)c2)cnc1=O [Compound 21, (S)-1-methyl-5-((5-(6-phenyl-5,6-dihydrocyclopenta[c]pyrazol-2 (4H)-yl)pyridin-3-yl)ethynyl)pyrimidine-2 (1H)-one] | 100 to 1000 nM |
| Cc1cnn(C)c1C#Cc1cccc(-n2cc3c(n2)C(c2ccccc2)CC3)c1 (stereo not drawn) [Compound 22, 2-(3-((1,4-dimethyl-1H-pyrazole-5-yl)ethynyl)phenyl)-6-phenyl-2,4,5,6-tetrahydrocyclopenta[c]pyrazole] | ≤ 100 nM |
| Cn1nccc1C#Cc1cccc(-n2cc3c(n2)C(c2ccccc2)CC3)c1 (stereo not drawn) [Compound 23, 2-(3-((1-methyl-1H-pyrazole-5-yl)ethynyl)phenyl)-6-phenyl-2,4,5,6-tetrahydrocyclopenta[c]pyrazole] | ≤ 100 nM |
| Cn1cc(C#Cc2cccc(-n3cc4c(n3)C(c3ccccc3)CC4)c2)cn1 (stereo not drawn) [Compound 25, 2-(3-((1-methyl-iH-pyrazole-4-yl)ethynyl)phenyl)-6-phenyl-2,4,5,6-tetrahydrocyclopenta[c]pyrazole] | ≤ 100 nM |
| C(#Cc1cnc2cccnn12)c1cncc(-n2cc3c(n2)C(c2ccccc2)CC3)n1 (stereo not drawn) [Compound 26, 3-((6-(6-phenyl-5,6-dihydrocyclopenta[c]pyrazol-2 (4H)-yl)pyrazin-2-yl)ethynyl)imidazo[1,2-b]pyridazine] | ≤ 100 nM |
| C(#Cc1cnc2cccnn12)c1ccnc(-n2cc3c(n2)C(c2ccccc2)CC3)c1 (stereo not drawn) [Compound 27] | ≤ 100 nM |
| Nc1ncc(C#Cc2cncc(-n3cc4c(n3)C(c3ccccc3)CC4)n2)cn1 (stereo not drawn) [Compound 29] | ≤ 100 nM |
| Cc1cncc(C#Cc2cccc(-n3cc4c(n3)C(c3ccccc3)CC4)c2)c1 (stereo not drawn) [Compound 34, 2-(3-((5-methylpyridin-3-yl)ethynyl)phenyl)-6-phenyl-2,4,5,6-tetrahydrocyclopenta[c]pyrazole] | ≤ 100 nM |
| Cc1ccc(C#Cc2cccc(-n3cc4c(n3)C(c3ccccc3)CC4)c2)cn1 (stereo not drawn) [Compound 35, 2-(3-((6-methylpyridin-3-yl)ethynyl)phenyl)-6-phenyl-2,4,5,6-tetrahydrocyclopenta[c]pyrazole] | ≤ 100 nM |
| Clc1ncc(C#Cc2cncc(-n3cc4c(n3)C(c3ccccc3)CC4)c2)cn1 (stereo not drawn) [Compound 41, 2-(5-((2-chloropyrimidin-5-yl)ethynyl)pyridin-3-yl)-6-phenyl-2,4,5,6-tetrahydrocyclopenta[c]pyrazole] | 100 to 1000 nM |
| Cc1c(C#Cc2cnc(N)nc2)cncc1-n1cc2c(n1)C(c1ccccc1)CC2 (stereo not drawn) [Compound 43, 5-((4-methyl-5-(6-phenyl-5,6-dihydrocyclopenta[c]pyrazol-2 (4H)-yl)pyridine-3-yl)ethynyl)pyrimidin-2-amine] | ≤ 100 nM |
| Nc1ncc(C#Cc2cncc(-n3cc4c(n3)[C@H](c3cccc(F)c3)CC4)c2)cn1 [Compound 46] | ≤ 100 nM |
| Nc1ncc(C#Cc2cncc(-n3cc4c(n3)[C@@H](c3cccc(F)c3)CC4)c2)cn1 [Compound 47, (R)-5-((5-(6-(3-fluorophenyl)-5,6-dihydrocyclopenta[c]pyrazol-2 (4H)-yl)pyridine-3-yl)ethynyl)pyrimidin-2-amine] | ≤ 100 nM |
| Nc1ncc(C#Cc2cncc(-n3cc4c(n3)C(c3cc(F)cc(F)c3)CC4)c2)cn1 (stereo not drawn) [Compound 48] | ≤ 100 nM |
| Nc1ncc(C#Cc2cncc(-n3cc4c(n3)[C@@H](c3cc(F)cc(F)c3)CC4)c2)cn1 [Compound 49, (R)-5-((5-(6-(3,5-difluorophenyl)-5,6-dihydrocyclopenta[c]pyrazol-2 (4H)-yl)pyridin-3-yl)ethynyl)pyrimidin-2-amine] | ≤ 100 nM |
| Nc1ncc(C#Cc2cncc(-n3cc4c(n3)[C@H](c3cc(F)cc(F)c3)CC4)c2)cn1 [Compound 50, (S)-5-((5-(6-(3,5-difluorophenyl)-5,6-dihydrocyclopenta[c]pyrazol-2 (4H)-yl)pyridin-3-yl)ethynyl)pyrimidin-2-amine] | ≤ 100 nM |
| C(#Cc1cnc2cccnn12)c1cccc(-n2nc3c(n2)C(c2ccccc2)CC3)c1 (stereo not drawn) [Compound 53, 3-((3-(4-phenyl-5,6-dihydrocyclopenta[d][1,2,3]triazol-2 (4H)-yl)phenyl)ethynyl)imidazo[1,2-b]pyridazine] | ≤ 100 nM |
| Cn1c(-n2nc3c(n2)C(c2cncc(F)c2)CC3)cc(C#Cc2cnc(N)nc2)cc1=O (stereo not drawn) [Compound 59, 4-((2-aminopyrimidin-5-yl)ethynyl)-6-(4-(5-fluoropyridin-3-yl)-5,6-dihydrocyclopenta[d][1,2,3]triazol-2 (4H)-yl)-1-methylpyridin-2 (1H)-one] | ≤ 100 nM |
| Nc1ncc(C#Cc2c[nH]c(=O)c(-n3nc4c(n3)C(c3ccccc3)CC4)c2)cn1 (stereo not drawn) [Compound 60, 5-((2-aminopyrimidin-5-yl)ethynyl)-3-(4-phenyl-5,6-dihydrocyclopenta[d][1,2,3]triazol-2 (4H)-yl)pyridine-2 (1H)-one] | > 1000 nM |
| Cc1ncc(C#Cc2cnc(N)nc2)cc1-n1nc2c(n1)C(C1CCCCC1)CC2 (stereo not drawn) [Compound 64, 5-((5-(4-cyclohexyl-5,6-dihydrocyclopenta[d][1,2,3]triazol-2 (4H)-yl)-6-methylpyridin-3-yl)ethynyl)pyrimidin-2-amine] | ≤ 100 nM |
